# Laboratory results taken from patent publication US20060117411A1, “Enhancing plant pathogen resistance via increasing BiP levels” (priority 1998, published 2006).
# Assays:
# [1] = tested on: α-amylase synthesis in tobacco protoplasts; test: Transient expression in tobacco protoplasts (pNL200), α-amylase activity; assay type: cell-based, Nicotiana tabacum; details: tunicamycin 20 μg/mL, 20 hr
# Excerpt: We have established a model system based on the comparison of protein biosynthesis in the cytosol and on the rough ER using transient expression. A plasmid was constructed (pNL200, FIG. 12A) containing two genes, one encoding the secreted barley α-amylase (Rogers, 1985) and the other encoding the cytosolic marker β-glucuronidase (GUS; Jefferson et al., 1987). α-Amylase was used to measure secretory protein biosynthesis, and GUS was used to control for transfection efficiency and overall cell viability. We compared cells under normal culture conditions with cells subjected to ER stress by treatment with tunicamycin. […] Since α-amylase is not glycosylated, tunicamycin should not have a direct effect on this protein. The tunicamycin effect is protein-specific and not dependent on the promoter used. […]
# (§1) Tobacco leaf protoplasts (from transformed or untransformed plants) were prepared, and electroporation experiments were performed as previously described (Denecke and Vitale, 1995), with minor modifications to the electroporation conditions. […] After 24 or 48 hr, the protoplasts were analysed by enzymatic assay or by protein gel blotting. […]
# α-Amylase activity was measured with a kit (Megazyme, Australia). […] The absorbance was measured at a wavelength of 405 nm, with a microtiter plate reader against a blank containing stop buffer alone. […]
# [2] = tested on: β-1,3-glucanase gene expression; test: Leaf treatment of tobacco plants, Northern blot of β-1,3-glucanase transcripts in local and systemic leaves; assay type: in vivo, Nicotiana tabacum; details: 3 and 8 hours of incubation
# Protocol: We have shown that treatment of tobacco plants with cell wall-degrading enzymes (CDE) leads to the rapid induction of β-1,3-glucanase and other PR genes, both locally and systemically (Vidal et al, 1997). […] We used a commercial preparation of fungal CDEs instead of custom made Erwinia-derived hydrolases to increase reproducibility. One leaf from each tobacco plant was treated with CDEs and the induction of BiP gene expression was analysed in the treated (local) and untreated (systemic) leaves from the same plant. […] This induction was observed locally as well systemically with the same timing and intensity. β-1,3-glucanase transcript accumulation is detectable only after 4 hours of incubation and reaches its plateau after 8 hours as described previously (Vidal et al, 1997). Whereas BiP induction is transient, β-1,3-glucanase mRNA levels continue to be high after prolonged incubation times (24-48 hours). […] The signal involved in the systemic response of BiP gene expression must therefore be transported very rapidly from the local leaf to the distal leaves.
# Even though BiP induction occurs prior to β-1,3 glucanase induction, we cannot rule out that other, as yet unidentified defence related proteins are induced more rapidly and perhaps before BiP in our experimental system. […]
# [3] = tested on: tobacco protoplasts (GUS, cell viability); test: Transient expression in tobacco protoplasts (pNL200), GUS internal marker; assay type: cell-based, Nicotiana tabacum; details: tunicamycin 20 μg/mL, 20 hr
# Excerpt: We have established a model system based on the comparison of protein biosynthesis in the cytosol and on the rough ER using transient expression. A plasmid was constructed (pNL200, FIG. 12A) containing two genes, one encoding the secreted barley α-amylase (Rogers, 1985) and the other encoding the cytosolic marker β-glucuronidase (GUS; Jefferson et al., 1987). α-Amylase was used to measure secretory protein biosynthesis, and GUS was used to control for transfection efficiency and overall cell viability. We compared cells under normal culture conditions with cells subjected to ER stress by treatment with tunicamycin. […]
# as §1
# GUS activity in protoplasts was measured with a […] assay. six mililiters of floated protoplasts were diluted in TEX buffer (B5 salts, 250 mg/L NH4NO3, 750 mg/L CaCl2, 500 mg/L MES, and 0.4 M sucrose, pH 5.7) and were spun down by the addition of 20 mL of 250 mM NaCl. […] The absorbance was measured at 415 nm against a blank containing stop buffer that had been incubated at 37° C. for the duration of the reaction time.
# PR1 mRNA = details: same experimental system, Vidal et al, 1997; cited from earlier work
Compound,total α-amylase activity in the cell suspension [1],"expression of β-1,3-glucanase, local and systemic [2]",cell viability monitored with the internal marker GUS [3],time until which PR1 continues to accumulate (shown previously) (PR1 mRNA)
tunicamycin,greatly reduced,neither locally nor systemically induced,does not affect cell viability,
"O=C(O)c1ccccc1O [SA, Salicylic Acid]",,,,≤ 48 h
